Patent publication US4098798A, “Adriamycins, process for their preparation and uses thereof” (Societa' Farmaceutici Italia S.p.A., priority 1974, dated 1978)
≈ marks a conversion by molar mass, not a printed value. Like-named read-outs stand apart in the source and are kept apart here.

Assays:
[1] = test system: Solid Sarcoma 180; assay: Activity on Solid Sarcoma 180 in mice; assay type: in vivo, Swiss CD 1 mice; details: for % Inhibition tumor growth: 10th day
[2] = test system: HeLa cells; assay: Cloning Efficiency of Hela cells in vitro; assay type: cell-based; details: for IC50: Homo sapiens, HeLa, 50% inhibition of colonies
Procedure: After treatment for 2,8 or 24 hours, HeLa cells were seeded (200 cells per plate) and the number of colonies determined 8 days later.
The ID50 represents the dose which gives a 50% of inhibition of colonies.

[3] = test system: B-subtilis; assay: inhibition zones on agar-B-subtilis plates, paper disc technique; assay type: cell-based; details: hydrochlorides, read-out: inhibition zone diameter
[4] = test system: L1210 Leukemia; assay: Action on L1210 Leukemia in mice; assay type: in vivo, BDF1 mice; details: 5 times every two hours on days 1 and 2
Description: Inbred BDF1 mice were intraperitoneally inoculated with 10^5 leukemia cells/mouse, and then treated (intraperitoneally) 5 times (every two hours) on days 1 and 2 after the tumor inoculation with varying doses of the compounds under examination.

[5] = test system: Moloney Sarcoma Virus (MSV); assay: MSV foci formation in infected mouse embryo fibroblast cultures (antiviral action); assay type: cell-based; details: 72 h, treatment of 3 days, read-out: Antiviral Action ID50
Procedure: (§1) The test compounds were evaluated on mouse embryo fibroblast cultures infected with MSV and on similar uninfected cultures. After a treatment of 3 days, the inhibiting doses (ID50) were evaluated on cell proliferation in uninfected cultures (cytotoxic action) and on MSV foci formation in infected cultures (antiviral action).

[6] = test system: Ascites Sarcoma 180; assay: Action on Ascites Sarcoma 180 in mice; assay type: in vivo, mice (Swiss CD 1); details: for Average Survival time: one day after inoculation, untreated = 100%
Procedure: The tests were carried out on groups of 10 mice (Swiss CD 1). The compounds under examination were administered intraperitoneally in varying doses to the test animals one day after intraperitoneal inoculation with 1 × 10^6 tumor cells per animal. The average survival time is given in Table 1 as a percentage of the survival time of untreated animals, which is arbitrarily designated as 100%. Also given in Table 1 are the number of long term survivors.

[7] = Cardiotoxic activity in vitro, beating of myocardial cells; assay type: cell-based, mice; details: mouse, 0.5 μg/ml, read-out: decrease of beating
[8] = test system: Transplanted Gross Leukemia; assay: Action on Transplanted Gross Leukemia in mice; assay type: in vivo, C3 H/He mice; details: first to fifth day
Description: Inbred C3 H/He mice were intravenously inoculated with […] leukemia cells/mouse and treated, intravenously, from the first to the fifth day after inoculation with the compounds under examination.

[9] = cell proliferation in uninfected mouse embryo fibroblast cultures (cytotoxic action); assay type: cell-based; details: mouse embryo fibroblasts, treatment of 3 days, read-out: Cytotoxic Action ID50
Procedure: as §1

[10] = 1.25 mg/Kg subcutaneously every 2 hrs for 5 times at days 1 and 3
[11] = 1.75 mg/Kg subcutaneously every 2 hrs for 5 times at days 1 and 3
[12] = 2 mg/Kg intravenously twice a day on days 1,2,3
[13] = 2.45 mg/Kg subcutaneously every 2 hrs for 5 times at days 1 and 3
[14] = 2.5 mg/Kg intravenously once a day on days 1,2,3,4,5
[15] = 2.5 mg/Kg intravenously twice a day on days 1,2,3
[16] = 3 mg/Kg intravenously twice a day on days 1,2,3

In the case of `COc1cccc2c1C(=O)c1c(O)c3c(c(O)c1C2=O)C[C@@](O)(C(=O)CO)C[C@@H]3O[C@H]1C[C@H](N)[C@H](O)[C@H](C)O1` [Adriamycin, 7-0-(3'-amino-2',3',6'-trideoxy-α-L-lyxohexopyranosyl)-adriamycinone], the “Average Survival time” value [1, 10] is reported as 112%, the “Toxic Deaths (at 10th day)” value [1, 10] is reported as 0/10 and the “% Inhibition tumor growth” value [1, 10] is reported as 69%. For the same compound, the “Average Survival time” value [1, 11] was 87%, the “Toxic Deaths (at 10th day)” value [1, 11] was 1/10 and the “% Inhibition tumor growth” value [1, 11] was 75%. The “Average Survival time” value [1, 12] was 100%, the “Toxic Deaths (at 10th day)” value [1, 12] was 1/10 and the “% Inhibition tumor growth” value [1, 12] was 70%. The “Average Survival time” value [1, 13] was 32%, the “Toxic Deaths (at 10th day)” value [1, 13] was 6/10 and the “Toxic Deaths (at 10th day)” value [1, 14] was 0/10. For the same compound, the “% Inhibition tumor growth” value [1, 14] was 54%, the “Average Survival time” value [1, 15] was 100% and the “Toxic Deaths (at 10th day)” value [1, 15] was 2/10. For the same compound, the “% Inhibition tumor growth” value [1, 15] was 71%, the “Average Survival time” value [1, 16] was 57% and the “Toxic Deaths (at 10th day)” value [1, 16] was 6/10. The “Toxic Deaths (at 10th day)” value ([1]; 3.5 mg/Kg intravenously once a day on days 1,2,3,4,5) was 7/10, the IC50 ([2]; Table 7, 2h treatment, read-out: DI50 (the source's name)) was 0.17 µg/mL (≈ 0.313 µM) and the IC50 ([2]; Table 7, 8h treatment, read-out: DI50 (the source's name)) was 0.14 µg/mL (≈ 0.258 µM). For the same compound, the IC50 ([2]; Table 7, 24h treatment, read-out: DI50 (the source's name)) was 0.016 µg/mL (≈ 0.0294 µM), the IC50 ([2]; Table 8, 2h treatment, read-out: DI 50 (the source's name)) was 0.35 µg/mL (≈ 0.644 µM) and the IC50 ([2]; Table 8, 8h treatment, read-out: DI 50 (the source's name)) was 0.18 µg/mL (≈ 0.331 µM). The IC50 ([2]; Table 8, 24h treatment, read-out: DI 50 (the source's name)) was 0.125 µg/mL (≈ 0.23 µM), the “Average Number of Colonies” value ([2]; Table 7, 0.05 μg/ml, 24h, control 223) was 76 and the “Average Number of Colonies” value ([2]; Table 7, 0.1 μg/ml, 2h, control 132) was 79. The “Average Number of Colonies” value ([2]; Table 7, 0.1 μg/ml, 8h, control 125) was 73, the “Average Number of Colonies” value ([2]; Table 7, 0.1 μg/ml, 24h, control 223) was 48 and the “Average Number of Colonies” value ([2]; Table 7, 0.25 μg/ml, 2h, control 132) was 46. For the same compound, the “Average Number of Colonies” value ([2]; Table 7, 0.25 μg/ml, 8h, control 125) was 38, the “Average Number of Colonies” value ([2]; Table 7, 0.25 μg/ml, 24h, control 223) was 20 and the “Average Number of Colonies” value ([2]; Table 7, 0.5 μg/ml, 2h, control 132) was 42. For the same compound, the “Average Number of Colonies” value ([2]; Table 7, 0.5 μg/ml, 8h, control 125) was 16, the “Average Number of Colonies” value ([2]; Table 7, 0.5 μg/ml, 24h, control 223) was 0 and the “Average Number of Colonies” value ([2]; Table 7, 1 μg/ml, 2h, control 132) was 21. The “Average Number of Colonies” value ([2]; Table 7, 1 μg/ml, 8h, control 125) was 8, the “Average Number of Colonies” value ([2]; Table 7, 1 μg/ml, 24h, control 223) was 0 and the “Average Number of Colonies” value ([2]; Table 8, 0.125 μg/ml, 2h, control 156) was 166. The “Average Number of Colonies” value ([2]; Table 8, 0.125 μg/ml, 24h, control 136) was 69, the “Average Number of Colonies” value ([2]; Table 8, 0.25 μg/ml, 2h, control 156) was 92 and the “Average Number of Colonies” value ([2]; Table 8, 0.25 μg/ml, 8h, control 189) was 28. For the same compound, the “Average Number of Colonies” value ([2]; Table 8, 0.25 μg/ml, 24h, control 136) was 43, the “Average Number of Colonies” value ([2]; Table 8, 0.5 μg/ml, 2h, control 156) was 27 and the “Average Number of Colonies” value ([2]; Table 8, 0.5 μg/ml, 8h, control 189) was 14. The zone of inhibition at 10 µg/disc ([3]; 10 μg) was 21 mm, the zone of inhibition at 20 µg/disc ([3]; 20 μg) was 23 mm and the “Average Survival time” value ([4]; 0.75 mg/Kg i.p.) was 160%. The “Average Survival time” value ([4]; 1 mg/Kg i.p.) was 155%, the “Long Term Survivors (after 60 days)” value ([4]; 1 mg/Kg i.p.) was 1/10 and the “Average Survival time” value ([4]; 1.25 mg/Kg i.p.) was 175%. The IC50 [5] was 0.005 µg/mL (≈ 0.0092 µM), the “Long Term Survivors (after 60 days)” value ([6]; 1 mg/Kg i.p.) was 0/10 and the “Average Survival time” value ([6]; 1 mg/Kg i.p.) was 169%. For the same compound, the “Long Term Survivors (after 60 days)” value ([6]; 5 mg/Kg i.p.) was 2/10, the “Average Survival time” value ([6]; 5 mg/Kg i.p.) was 276% and the inhibition at 2 h [7] was 50%. The “Long Term Survivors (after 60 days)” value ([8]; 2 mg/Kg i.v.) was 0/10, the “Average Survival time, Exp. 1” value ([8]; 2 mg/Kg i.v.) was 183% and the “Long Term Survivors (after 60 days)” value ([8]; 2.5 mg/Kg i.v.) was 0/20. The “Average Survival time, Exp. 1” value ([8]; 2.5 mg/Kg i.v.) was 208%, the “Average Survival time, Exp. 2” value ([8]; 2.5 mg/Kg i.v.) was 186% and the “Long Term Survivors (after 60 days)” value ([8]; 2.75 mg/Kg i.v.) was 0/10. For the same compound, the “Average Survival time, Exp. 1” value ([8]; 2.75 mg/Kg i.v.) was 208%, the “Long Term Survivors (after 60 days)” value ([8]; 3 mg/Kg i.v.) was 0/10 and the “Average Survival time, Exp. 2” value ([8]; 3 mg/Kg i.v.) was 186%. For the same compound, the “Long Term Survivors (after 60 days)” value ([8]; 3.6 mg/Kg i.v.) was 0/10, the “Average Survival time, Exp. 2” value ([8]; 3.6 mg/Kg i.v.) was 200% and the CC50 at 72 h [9] was 0.01 µg/mL (≈ 0.0184 µM).
